Data from PMC5441580, “GPR40 partial agonist MK-2305 lower fasting glucose in the Goto Kakizaki rat via suppression of endogenous glucose production” (PLoS ONE, 2017).
Where “and” joins values, the source holds several entries; their conditions need not be identical. Identical values can stand only once.

Tested on: GK rats
Experiment: GK rat chronic efficacy, compound in feed for 20 days
Format: in vivo
Conditions: for % HBA1c / Liver Triglycerides: following 20 days of treatment in the GK rat
Experimental: At the start of the study, fed glucose was measured at 8 A.M., and animals were selected and sorted into treatment groups based on ambient glucose (n = 10/male GK group, n = 6/male WKY control group). […] Fed blood glucose, food intake, and body weights were determined on days 0, 1, 3, 7, and 14 of study at 8 A.M. On days 7 and 14, food was removed for 5 h and plasma glucose was measured. Percent inhibitions were calculated as the percent reduction of blood glucose from the average value for vehicle controls. On day 14, blood was collected from the tail vein (20 μl) after the morning glucose measurement and after 5 h fast from a subset of n = 3 rats per treatment group to determine the ambient and fasted exposure of the compounds in circulation. The blood was stored at 4°C in 0.1 M sodium monocitrate for subsequent analysis. Animals were then re-fed their respective diet treatments. On day 20 of treatment at 8 A.M., blood glucose was measured and then animals were euthanized via CO2 asphyxiation. Blood and liver tissue were sampled, processed, and stored at -80°C until analysis.
Plasma was analyzed for triglycerides, NEFA, and HbA1C using a P Modular Roche Clinical Chemistry analyzer. Liver triglycerides were extracted as described by Bligh and Dyer, and were measured using the Infinity triglyceride assay kit (Thermo Scientific, Rockford, IL). Plasma insulin levels were measured via EIA (Mesoscale Discovery ELISA Kit, Gaithersburg MD).

With O=C1NC(=O)C(C2CCOc3cc(Oc4ccc(C(F)(F)F)cc4Cl)ccc32)S1 (stereo not shown) [MK-2305] the “effect on body weight” value (10 mg/kg in feed, GK rats) was “no significant effect”, the “effect on food intake” value (10 mg/kg in feed, GK rats) was “no significant effect” and the “effect on food intake” value (30 mg/kg in feed, GK rats, p < 0.05) was “reduction in food intake that persisted through day 14”. For the same compound, the “effect on body weight” value (30 mg/kg in feed, GK rats, relative to vehicle controls) was “did not correspond to changes in body weight”, the “% HBA1c” value (10 mpk, individual animals) was 4.3% and 4.6% and 4.2% and 4.4% and 4.5% and the “Liver Triglycerides” value (10 mpk, individual animals) was 19.1 mg/g tissue and 21.7 mg/g tissue and 24.5 mg/g tissue and 22.1 mg/g tissue and 24.7 mg/g tissue and 26.9 mg/g tissue and 25.8 mg/g tissue and 22.8 mg/g tissue. For the same compound, the “Morning (fed) Blood Glucose” value (30 mpk in feed, Day 0 (start of study), individual GK rats) was 189 mg/dL and 176 mg/dL and 238 mg/dL and 199 mg/dL and 183 mg/dL and 212 mg/dL and 192 mg/dL and 274 mg/dL and 228 mg/dL, the “Morning (fed) Blood Glucose” value (30 mpk in feed, Day 1, individual GK rats) was 147 mg/dL and 165 mg/dL and 223 mg/dL and 161 mg/dL and 155 mg/dL and 192 mg/dL and 153 mg/dL and 302 mg/dL and 159 mg/dL and the “Morning (fed) Blood Glucose” value (30 mpk in feed, Day 3, individual GK rats) was 139 mg/dL and 153 mg/dL and 156 mg/dL and 150 mg/dL and 169 mg/dL and 149 mg/dL and 154 mg/dL and 218 mg/dL and 134 mg/dL. The “Morning (fed) Blood Glucose” value (30 mpk in feed, Day 7, individual GK rats) was 139 mg/dL and 153 mg/dL and 126 mg/dL and 142 mg/dL and 151 mg/dL and 181 mg/dL and 197 mg/dL and 140 mg/dL, the “Morning (fed) Blood Glucose” value (30 mpk in feed, Day 14, individual GK rats) was 141 mg/dL and 143 mg/dL and 156 mg/dL and 133 mg/dL and 132 mg/dL and 146 mg/dL and 147 mg/dL and the “Morning (fed) Blood Glucose” value (30 mpk in feed, Day 20, individual GK rats) was 128 mg/dL and 137 mg/dL and 159 mg/dL and 133 mg/dL and 139 mg/dL and 122 mg/dL and 126 mg/dL and 115 mg/dL and 142 mg/dL. For the same compound, the “% HBA1c” value (30 mpk, individual animals) was 4.4% and 4.5% and 4.3%, the “Liver Triglycerides” value (30 mpk, individual animals) was 16.7 mg/g tissue and 23.9 mg/g tissue and 28.2 mg/g tissue and 27.1 mg/g tissue and 24.5 mg/g tissue and 23 mg/g tissue and 24.3 mg/g tissue and the Fasted blood glucose (Day 7, ~6 hrs after food removal, 30mpk, chronic study, individual animals, 30 mg/kg) was 110 mg/dl (2×) and 125 mg/dl and 135 mg/dl and 103 mg/dl and 141 mg/dl and 118 mg/dl (2×) and 114 mg/dl. The Fasted plasma insulin (Day 7, 10mpk, individual animals, 10 mg/kg) was 405.2 pg/mL and 91.1 pg/mL and 88.1 pg/mL and 159.3 pg/mL and 284.1 pg/mL and 97.1 pg/mL and 80.9 pg/mL and 605.6 pg/mL and 106.3 pg/mL, the Fasted plasma insulin (Day 7, 30mpk, individual animals, 30 mg/kg) was 199.5 pg/mL and 58.7 pg/mL and 102.1 pg/mL and 88.8 pg/mL and 104.2 pg/mL and 182.8 pg/mL and 66.3 pg/mL and 259.0 pg/mL and 51.6 pg/mL and the Fasted plasma insulin (Day 14, 10mpk, individual animals, 10 mg/kg) was 66.8 pg/mL and 405.9 pg/mL and 135.1 pg/mL and 49.4 pg/mL and 1589.0 pg/mL and 353.3 pg/mL and 247.1 pg/mL and 127.3 pg/mL and 158.9 pg/mL. The Fasted plasma insulin (Day 14, 30mpk, individual animals, 30 mg/kg) was 80.8 pg/mL and 3482.1 pg/mL and 77.9 pg/mL and 794.5 pg/mL and 102.8 pg/mL and 430.5 pg/mL and 972.9 pg/mL and 1169.4 pg/mL and 1639.6 pg/mL, the “NEFA (mEq/L)” value (MK2305 @ 10, 20 days of treatment, individual GK rats) was 0.23 mEq/L and 0.33 mEq/L and 0.26 mEq/L and 0.5 mEq/L and 0.19 mEq/L and 0.37 mEq/L and 0.32 mEq/L and the “NEFA (mEq/L)” value (MK2305 @ 30, 20 days of treatment, individual GK rats) was 0.21 mEq/L and 0.43 mEq/L and 0.24 mEq/L and 0.45 mEq/L and 0.39 mEq/L and 0.38 mEq/L and 0.22 mEq/L and 0.34 mEq/L. The “Morning (fed) Blood Glucose” value (MK-2305 10 mpk in feed, Day 0 (start of study), individual GK rats, 10 mg/kg) was 184 mg/dL and 260 mg/dL and 210 mg/dL and 227 mg/dL and 237 mg/dL and 193 mg/dL and 200 mg/dL and 191 mg/dL and 179 mg/dL, the “Morning (fed) Blood Glucose” value (MK-2305 10 mpk in feed, Day 1, individual GK rats, 10 mg/kg) was 170 mg/dL and 247 mg/dL and 203 mg/dL and 186 mg/dL and 231 mg/dL and 179 mg/dL and 277 mg/dL and 199 mg/dL and 162 mg/dL and the “Morning (fed) Blood Glucose” value (MK-2305 10 mpk in feed, Day 3, individual GK rats, 10 mg/kg) was 158 mg/dL and 166 mg/dL and 183 mg/dL and 172 mg/dL and 163 mg/dL and 169 mg/dL and 170 mg/dL and 167 mg/dL. The “Morning (fed) Blood Glucose” value (MK-2305 10 mpk in feed, Day 7, individual GK rats, 10 mg/kg) was 150 mg/dL and 185 mg/dL and 138 mg/dL and 158 mg/dL and 179 mg/dL and 152 mg/dL and 224 mg/dL and 161 mg/dL, the “Morning (fed) Blood Glucose” value (MK-2305 10 mpk in feed, Day 14, individual GK rats, 10 mg/kg) was 146 mg/dL and 143 mg/dL and 176 mg/dL and 141 mg/dL and 140 mg/dL and 169 mg/dL and 230 mg/dL and the “Morning (fed) Blood Glucose” value (MK-2305 10 mpk in feed, Day 20, individual GK rats, 10 mg/kg) was 146 mg/dL and 140 mg/dL and 150 mg/dL and 149 mg/dL and 138 mg/dL and 145 mg/dL and 163 mg/dL and 120 mg/dL. The “decrease in fed glucose vs. vehicle” value (day 3, 10 mg/kg in feed, GK rats, p < 0.05) was 22%.
